What was measured:
CHEK1 = biological target: T1, CHEK1 (Homo sapiens, UniProt O14757); conditions: 10 μM; cited from earlier work
T1 construct: purchased Eurofins DiscoverX

EGFR(L858R) [1] = biological target: T2, EGFR(L858R) (Homo sapiens, UniProt P00533, L858R); conditions: 10 μM; cited from earlier work
T2 construct: purchased Eurofins DiscoverX

KIT(V559D, T670I) = biological target: T3, KIT(V559D, T670I) (Homo sapiens, UniProt P10721, T670I/V559D); conditions: 10 μM; cited from earlier work
T3 construct: purchased Eurofins DiscoverX

ERK1 [2] = biological target: T4, ERK1 (Homo sapiens, UniProt P27361); conditions: 10 μM; cited from earlier work
T4 construct: purchased Eurofins DiscoverX

JNK2 = biological target: T5, JNK2 (Homo sapiens, UniProt P45984); conditions: 10 μM; cited from earlier work
T5 construct: purchased Eurofins DiscoverX

PCTK1 = biological target: T6, PCTK1 (Homo sapiens, UniProt Q00536); conditions: 10 μM; cited from earlier work
T6 construct: purchased Eurofins DiscoverX (KINOMEscan scanEDGE service)

EPHA2 = biological target: T7, EPHA2 (Homo sapiens, UniProt P29317); conditions: 10 μM; cited from earlier work
T7 construct: purchased Eurofins DiscoverX

PLK3 = biological target: T8, PLK3 (Homo sapiens, UniProt Q9H4B4); conditions: 10 μM; cited from earlier work
T8 construct: purchased Eurofins DiscoverX KINOMEscan scanEDGE

SRPK3 = biological target: T9, SRPK3 (Homo sapiens, UniProt Q9UPE1); conditions: 10 μM; cited from earlier work
T9 construct: purchased Eurofins DiscoverX KINOMEscan scanEDGE

LKB1 = biological target: T10, LKB1 (Homo sapiens, UniProt Q15831); conditions: 10 μM; cited from earlier work
T10 construct: purchased Eurofins DiscoverX (KINOMEscan scanEDGE service)

AKT2 = biological target: T11, AKT2 (Homo sapiens, UniProt P31751); conditions: 10 μM; cited from earlier work
T11 construct: purchased Eurofins DiscoverX

PLK4 = biological target: T12, PLK4 (Homo sapiens, UniProt O00444); conditions: 10 μM; cited from earlier work
T12 construct: purchased Eurofins DiscoverX KINOMEscan scanEDGE

IKK-beta = biological target: T13, IKK-beta (Homo sapiens, UniProt O14920); conditions: 10 μM; cited from earlier work
T13 construct: purchased Eurofins DiscoverX

ERBB4 = biological target: T14, ERBB4 (Homo sapiens, UniProt Q15303); conditions: 10 μM; cited from earlier work
T14 construct: purchased Eurofins DiscoverX

PAK2 = biological target: T15, PAK2 (Homo sapiens, UniProt Q13177); conditions: 10 μM; cited from earlier work
T15 construct: purchased Eurofins DiscoverX (KINOMEscan scanEDGE service)

TSSK1B = biological target: T16, TSSK1B (Homo sapiens, UniProt Q9BXA7); conditions: 10 μM; cited from earlier work
T16 construct: purchased Eurofins DiscoverX KINOMEscan scanEDGE

BMPR2 = biological target: T17, BMPR2 (Homo sapiens, UniProt Q13873); conditions: 10 μM; cited from earlier work
T17 construct: purchased Eurofins DiscoverX

CDK11 = biological target: T18, CDK11 (Homo sapiens, UniProt Q9BWU1); conditions: 10 μM; cited from earlier work
T18 construct: purchased Eurofins DiscoverX

MEK1 = biological target: T19, MEK1 (Homo sapiens, UniProt Q02750); conditions: 10 μM; cited from earlier work
T19 construct: purchased Eurofins DiscoverX (KINOMEscan scanEDGE service)

CSF1R = biological target: T20, CSF1R (Homo sapiens, UniProt P07333); conditions: 10 μM; cited from earlier work
T20 construct: purchased Eurofins DiscoverX

[3] = biological target: T21, JAK3(JH1domain-catalytic) (Homo sapiens, UniProt P52333); conditions: 10 μM; cited from earlier work
T21 construct: JAK3(JH1domain-catalytic); purchased Eurofins DiscoverX

RET = biological target: T22, RET (Homo sapiens, UniProt P07949); conditions: 10 μM; cited from earlier work
T22 construct: purchased Eurofins DiscoverX KINOMEscan scanEDGE

TRKA = biological target: T23, TRKA (Homo sapiens, UniProt P04629); conditions: 10 μM; cited from earlier work
T23 construct: purchased Eurofins DiscoverX KINOMEscan scanEDGE

TGFBR1 = biological target: T24, TGFBR1 (Homo sapiens, UniProt P36897); conditions: 10 μM; cited from earlier work
T24 construct: purchased Eurofins DiscoverX KINOMEscan scanEDGE

AKT1 = biological target: T25, AKT1 (Homo sapiens, UniProt P31749); conditions: 10 μM; cited from earlier work
T25 construct: purchased Eurofins DiscoverX

PAK4 [4] = biological target: T26, PAK4 (Homo sapiens, UniProt O96013); conditions: 10 μM; cited from earlier work
T26 construct: purchased Eurofins DiscoverX (KINOMEscan scanEDGE service)

EGFR(L858R) [5] = biological target: T2, EGFR(L858R); assay: KINOMEscan scanEDGE; format: binding; conditions: read-out: Percent Control
Experimental: (§1) Kinome Scan. Compound HTW_A_8 fumarate was screened against 97 kinases at a single concentration of 10 μM at Eurofins DiscoverX using their KINOMEscan™ scanEDGE assay. The results are reported as the % activity relative to DMSO control, where lower values indicate higher affinity. See Table 1 for the full kinome profile.

PAK4 [6] = biological target: T26, PAK4; assay: KINOMEscan scanEDGE; format: binding; conditions: read-out: Percent Control
Experimental: as §1

[7] = biological target: T27, ABL1(E255K)-phosphorylated (Homo sapiens, UniProt P00519, E255K); assay: KINOMEscan scanEDGE; format: binding; conditions: read-out: Percent Control
T27 construct: purchased Eurofins DiscoverX
Experimental: as §1

PDPK1 = biological target: T28, PDPK1 (Homo sapiens, UniProt O15530); assay: KINOMEscan scanEDGE; format: binding; conditions: read-out: Percent Control
T28 construct: purchased Eurofins DiscoverX (KINOMEscan scanEDGE service)
Experimental: as §1

CDK3 = biological target: T29, CDK3 (Homo sapiens, UniProt Q00526); assay: KINOMEscan scanEDGE; format: binding; conditions: read-out: Percent Control
T29 construct: purchased Eurofins DiscoverX
Experimental: as §1

ZAP70 = biological target: T30, ZAP70 (Homo sapiens, UniProt P43403); assay: KINOMEscan scanEDGE; format: binding; conditions: read-out: Percent Control
T30 construct: purchased Eurofins DiscoverX KINOMEscan scanEDGE
Experimental: as §1

PIK3CA = biological target: T31, PIK3CA (Homo sapiens, UniProt P42336); assay: KINOMEscan scanEDGE; format: binding; conditions: read-out: Percent Control
T31 construct: purchased Eurofins DiscoverX (KINOMEscan scanEDGE service)
Experimental: as §1

FLT3 = biological target: T32, FLT3 (Homo sapiens, UniProt P36888); assay: KINOMEscan scanEDGE; format: binding; conditions: read-out: Percent Control
T32 construct: purchased Eurofins DiscoverX
Experimental: as §1

ERK1 [8] = biological target: T4, ERK1; assay: KINOMEscan scanEDGE; format: binding; conditions: read-out: Percent Control
Experimental: as §1

PLK1 = biological target: T33, PLK1 (Homo sapiens, UniProt P53350); assay: KINOMEscan scanEDGE; format: binding; conditions: read-out: Percent Control
T33 construct: purchased Eurofins DiscoverX KINOMEscan scanEDGE
Experimental: as §1

JNK3 = biological target: T34, JNK3 (Homo sapiens, UniProt P53779); assay: KINOMEscan scanEDGE; format: binding; conditions: read-out: Percent Control
T34 construct: purchased Eurofins DiscoverX
Experimental: as §1

AXL = biological target: T35, AXL (Homo sapiens, UniProt P30530); assay: KINOMEscan scanEDGE; format: binding; conditions: read-out: Percent Control
T35 construct: purchased Eurofins DiscoverX
Experimental: as §1

T4 sequence (P27361 whole entry): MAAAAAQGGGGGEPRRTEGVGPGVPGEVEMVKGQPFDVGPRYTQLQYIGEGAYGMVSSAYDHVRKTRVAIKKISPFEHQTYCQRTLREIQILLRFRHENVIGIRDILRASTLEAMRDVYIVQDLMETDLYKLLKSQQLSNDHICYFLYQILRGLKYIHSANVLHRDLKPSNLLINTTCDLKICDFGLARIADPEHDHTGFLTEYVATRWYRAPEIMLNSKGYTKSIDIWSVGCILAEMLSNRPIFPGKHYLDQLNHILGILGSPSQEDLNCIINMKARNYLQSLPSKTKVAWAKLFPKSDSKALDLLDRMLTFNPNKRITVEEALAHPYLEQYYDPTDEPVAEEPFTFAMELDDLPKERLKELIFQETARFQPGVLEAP
T26 sequence (O96013 whole entry): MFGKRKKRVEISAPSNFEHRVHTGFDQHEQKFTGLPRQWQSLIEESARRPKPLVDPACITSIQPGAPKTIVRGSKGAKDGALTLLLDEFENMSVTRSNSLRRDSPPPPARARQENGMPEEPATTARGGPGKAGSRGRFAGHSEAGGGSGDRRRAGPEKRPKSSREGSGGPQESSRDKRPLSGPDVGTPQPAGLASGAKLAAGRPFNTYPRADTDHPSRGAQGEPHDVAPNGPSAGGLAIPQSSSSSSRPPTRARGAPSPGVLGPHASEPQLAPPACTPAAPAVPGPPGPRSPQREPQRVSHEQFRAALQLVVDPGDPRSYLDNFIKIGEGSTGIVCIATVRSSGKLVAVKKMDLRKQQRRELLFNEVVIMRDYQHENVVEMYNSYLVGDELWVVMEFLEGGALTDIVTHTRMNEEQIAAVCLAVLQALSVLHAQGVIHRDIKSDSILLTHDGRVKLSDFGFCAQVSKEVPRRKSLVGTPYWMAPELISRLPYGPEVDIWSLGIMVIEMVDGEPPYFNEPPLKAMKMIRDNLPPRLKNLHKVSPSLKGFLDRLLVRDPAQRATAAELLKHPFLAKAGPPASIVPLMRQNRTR
T31 sequence (P42336 whole entry): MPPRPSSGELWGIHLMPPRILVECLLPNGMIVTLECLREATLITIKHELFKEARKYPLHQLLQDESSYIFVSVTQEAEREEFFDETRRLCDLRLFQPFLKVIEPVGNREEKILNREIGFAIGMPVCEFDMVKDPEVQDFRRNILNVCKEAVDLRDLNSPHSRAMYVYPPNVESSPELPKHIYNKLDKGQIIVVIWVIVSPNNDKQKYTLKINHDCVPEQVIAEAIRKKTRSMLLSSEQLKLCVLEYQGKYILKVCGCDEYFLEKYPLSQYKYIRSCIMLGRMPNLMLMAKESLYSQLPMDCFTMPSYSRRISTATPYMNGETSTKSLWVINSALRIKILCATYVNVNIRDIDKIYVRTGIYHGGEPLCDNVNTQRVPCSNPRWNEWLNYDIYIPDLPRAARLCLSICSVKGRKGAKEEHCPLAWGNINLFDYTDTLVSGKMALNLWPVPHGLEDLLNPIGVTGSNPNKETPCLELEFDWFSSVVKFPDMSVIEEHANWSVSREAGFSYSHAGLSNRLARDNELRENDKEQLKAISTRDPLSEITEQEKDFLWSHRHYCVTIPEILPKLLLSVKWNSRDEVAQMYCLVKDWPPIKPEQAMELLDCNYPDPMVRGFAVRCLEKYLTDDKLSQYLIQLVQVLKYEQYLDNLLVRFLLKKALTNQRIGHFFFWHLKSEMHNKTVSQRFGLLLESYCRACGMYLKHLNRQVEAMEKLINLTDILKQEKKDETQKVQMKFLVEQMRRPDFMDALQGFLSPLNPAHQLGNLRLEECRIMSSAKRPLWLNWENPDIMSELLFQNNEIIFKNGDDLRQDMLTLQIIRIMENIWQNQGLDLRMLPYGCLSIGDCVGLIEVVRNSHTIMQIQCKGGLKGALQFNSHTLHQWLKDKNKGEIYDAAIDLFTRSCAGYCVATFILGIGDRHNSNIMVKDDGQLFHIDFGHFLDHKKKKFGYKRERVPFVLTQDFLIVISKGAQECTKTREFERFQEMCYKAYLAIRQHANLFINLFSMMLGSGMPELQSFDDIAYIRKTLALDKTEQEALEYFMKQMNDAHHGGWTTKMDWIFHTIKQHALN
T27 sequence (P00519 whole entry E255K): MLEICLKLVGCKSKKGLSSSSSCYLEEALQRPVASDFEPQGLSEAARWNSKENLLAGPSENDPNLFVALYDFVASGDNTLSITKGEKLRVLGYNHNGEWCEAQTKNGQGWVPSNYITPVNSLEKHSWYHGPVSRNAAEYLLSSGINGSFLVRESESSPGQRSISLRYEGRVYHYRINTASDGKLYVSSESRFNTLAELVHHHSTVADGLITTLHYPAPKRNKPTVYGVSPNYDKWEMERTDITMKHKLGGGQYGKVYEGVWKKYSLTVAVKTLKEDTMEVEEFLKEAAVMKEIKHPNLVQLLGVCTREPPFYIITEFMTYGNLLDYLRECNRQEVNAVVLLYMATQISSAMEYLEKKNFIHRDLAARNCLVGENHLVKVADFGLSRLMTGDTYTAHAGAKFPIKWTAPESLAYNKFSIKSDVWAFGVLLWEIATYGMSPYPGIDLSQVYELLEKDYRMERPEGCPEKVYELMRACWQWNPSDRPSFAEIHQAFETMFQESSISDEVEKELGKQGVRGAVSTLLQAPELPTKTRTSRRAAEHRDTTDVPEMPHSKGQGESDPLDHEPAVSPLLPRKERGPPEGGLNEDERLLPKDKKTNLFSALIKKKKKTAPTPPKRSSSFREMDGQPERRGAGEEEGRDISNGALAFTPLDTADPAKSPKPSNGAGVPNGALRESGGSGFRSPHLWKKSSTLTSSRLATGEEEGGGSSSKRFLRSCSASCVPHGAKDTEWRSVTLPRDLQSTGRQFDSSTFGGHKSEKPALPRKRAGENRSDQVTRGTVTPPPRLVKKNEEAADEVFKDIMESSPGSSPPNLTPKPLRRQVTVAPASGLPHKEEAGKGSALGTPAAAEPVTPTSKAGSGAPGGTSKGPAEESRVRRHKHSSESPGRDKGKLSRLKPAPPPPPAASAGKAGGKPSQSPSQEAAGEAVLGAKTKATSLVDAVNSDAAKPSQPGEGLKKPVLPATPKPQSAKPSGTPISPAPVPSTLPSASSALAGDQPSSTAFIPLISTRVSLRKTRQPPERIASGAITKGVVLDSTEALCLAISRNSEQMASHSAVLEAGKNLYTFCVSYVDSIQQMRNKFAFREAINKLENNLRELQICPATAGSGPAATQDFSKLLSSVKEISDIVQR
T13 sequence (O14920 whole entry): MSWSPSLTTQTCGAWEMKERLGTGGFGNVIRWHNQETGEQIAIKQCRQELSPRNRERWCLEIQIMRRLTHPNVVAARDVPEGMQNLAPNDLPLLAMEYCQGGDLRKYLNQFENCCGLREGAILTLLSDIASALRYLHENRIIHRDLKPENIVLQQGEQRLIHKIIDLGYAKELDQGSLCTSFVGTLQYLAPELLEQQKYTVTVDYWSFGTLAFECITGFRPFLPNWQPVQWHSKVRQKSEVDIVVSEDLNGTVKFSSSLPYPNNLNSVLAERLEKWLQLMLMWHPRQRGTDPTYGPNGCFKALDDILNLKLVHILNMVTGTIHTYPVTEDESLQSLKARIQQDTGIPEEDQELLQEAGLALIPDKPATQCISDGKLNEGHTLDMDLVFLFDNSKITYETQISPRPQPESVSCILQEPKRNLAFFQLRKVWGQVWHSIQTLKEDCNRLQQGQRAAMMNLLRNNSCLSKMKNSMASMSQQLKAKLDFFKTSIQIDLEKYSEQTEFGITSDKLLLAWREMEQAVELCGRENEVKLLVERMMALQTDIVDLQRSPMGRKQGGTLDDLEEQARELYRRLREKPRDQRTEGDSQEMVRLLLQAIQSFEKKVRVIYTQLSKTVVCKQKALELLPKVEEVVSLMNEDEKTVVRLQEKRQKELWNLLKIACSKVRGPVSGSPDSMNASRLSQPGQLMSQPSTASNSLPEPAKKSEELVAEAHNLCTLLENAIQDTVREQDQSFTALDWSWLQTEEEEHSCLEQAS
T17 sequence (Q13873 27-1038): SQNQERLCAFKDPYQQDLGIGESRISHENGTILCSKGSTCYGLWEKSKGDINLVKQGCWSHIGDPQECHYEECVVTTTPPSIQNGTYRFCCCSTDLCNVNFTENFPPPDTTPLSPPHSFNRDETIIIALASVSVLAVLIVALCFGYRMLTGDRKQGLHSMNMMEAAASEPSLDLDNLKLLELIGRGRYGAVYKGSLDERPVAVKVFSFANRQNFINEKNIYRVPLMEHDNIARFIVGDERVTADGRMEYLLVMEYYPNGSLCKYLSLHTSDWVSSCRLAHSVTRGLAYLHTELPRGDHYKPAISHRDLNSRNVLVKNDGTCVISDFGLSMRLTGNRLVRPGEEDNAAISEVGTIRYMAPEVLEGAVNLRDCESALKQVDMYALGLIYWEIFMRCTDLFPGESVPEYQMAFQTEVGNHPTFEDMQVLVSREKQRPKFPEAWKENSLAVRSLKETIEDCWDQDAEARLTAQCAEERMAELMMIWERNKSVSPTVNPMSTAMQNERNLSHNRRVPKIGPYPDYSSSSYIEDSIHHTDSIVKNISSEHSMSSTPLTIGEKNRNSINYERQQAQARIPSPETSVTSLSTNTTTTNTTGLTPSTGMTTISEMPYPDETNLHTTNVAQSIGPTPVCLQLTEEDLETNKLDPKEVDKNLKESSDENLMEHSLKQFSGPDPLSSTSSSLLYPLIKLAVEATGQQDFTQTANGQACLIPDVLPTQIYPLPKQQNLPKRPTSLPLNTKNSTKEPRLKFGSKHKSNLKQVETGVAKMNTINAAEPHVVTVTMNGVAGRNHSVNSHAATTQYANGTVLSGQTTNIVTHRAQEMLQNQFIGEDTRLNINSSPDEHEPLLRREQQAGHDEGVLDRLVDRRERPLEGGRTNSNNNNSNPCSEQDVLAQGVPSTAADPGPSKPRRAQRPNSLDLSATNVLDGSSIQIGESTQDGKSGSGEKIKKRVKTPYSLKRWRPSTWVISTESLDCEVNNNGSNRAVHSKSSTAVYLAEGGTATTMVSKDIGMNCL

COc1ccc2c(c1)[nH]c1c(C)nccc12 [Harmine, harmine]
Percent Control (CHEK1): 96%
Percent Control (EGFR(L858R) [1]): 81%
Percent Control (KIT(V559D, T670I)): 92%
Percent Control (ERK1 [2]): 99%
Percent Control (JNK2): 58%
Percent Control (PCTK1): 100%
Percent Control (EPHA2): 93%
Percent Control (PLK3): 75%
Percent Control (SRPK3): 84%
Percent Control (LKB1): 91%
Percent Control (AKT2): 80%
Percent Control (PLK4): 77%
Percent Control (IKK-beta): 95%
Percent Control (ERBB4): 83%
Percent Control (PAK2): 47%
Percent Control (TSSK1B): 100%
Percent Control (BMPR2): 96%
Percent Control (CDK11): 83%
Percent Control (MEK1): 79%
Percent Control (CSF1R): 88%
Percent Control [3]: 61%
Percent Control (RET): 91%
Percent Control (TRKA): 100%
Percent Control (TGFBR1): 91%
Percent Control (AKT1): 96%
Percent Control (PAK4 [4]): 76%

COc1ccc2c3ccnc(C)c3n(CCN(C)C)c2c1.O=C(O)/C=C/C(=O)O [HTW_A_8 fumarate, 2-(7-methoxy-1-methyl-9H-pyrido[3,4-b]indol-9-yl)-N,N-dimethylethan-1-amine Fumarate Salt (2:3)]
remaining binding at 10 µM (EGFR(L858R) [5]): 87%
remaining binding at 10 µM (PAK4 [6]): 100%
remaining binding at 10 µM [7]: 79%
remaining binding at 10 µM (PDPK1): 76%
remaining binding at 10 µM (CDK3): 91%
remaining binding at 10 µM (ZAP70): 93%
remaining binding at 10 µM (PIK3CA): 100%
remaining binding at 10 µM (FLT3): 85%
remaining binding at 10 µM (ERK1 [8]): 85%
remaining binding at 10 µM (PLK1): 100%
remaining binding at 10 µM (JNK3): 91%
remaining binding at 10 µM (AXL): 97%
